Test results taken from the supplement of paper PMC11061612.

Key:
Assay in all cases: combination Emax (second highest fraction inhibited in the dose matrix, 72 h); higher = more inhibition; extreme values may be limits of the assay
[1] = test system: LU-99A (Non-Small Cell Lung Carcinoma)
Procedure, shortened: (§1)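 Cell lines in DMEM/F12 or RPMI with 10% FBS were plated in 1536-well plates, held 24 hours at 37°C, 5% CO2, then given two-drug dose matrices for 72 hours (DMSO typically 0.2%). Viability was read by CellTiter-Glo 2.0 luminescence and scaled as inhibition from 0 (vehicle wells) to 1 (blank wells). Combination Emax is the second-highest inhibition in the matrix; Bliss excess is observed combination effect minus expected EA + EB − EA·EB, EA and EB being single-agent effects.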

[2] = test system: CAL-78 (Chondrosarcoma)
Procedure, shortened: as §1

[3] = test system: DOV13 (Ovarian Carcinoma)
Procedure, shortened: as §1

[4] = test system: JiyoyeP-2003 (Burkitt's Lymphoma)
Procedure, shortened: as §1

[5] = test system: SK-N-FI (Neuroblastoma)
Procedure, shortened: as §1

[6] = test system: 697 (B-Lymphoblastic Leukemia)
Procedure, shortened: as §1

[7] = test system: NCI-H1299 (Non-Small Cell Lung Carcinoma)
Procedure, shortened: as §1

[8] = test system: EM-2 (Chronic Myelogenous Leukemia)
Procedure, shortened: as §1

[9] = test system: TE-5 (Esophageal Squamous Cell Carcinoma)
Procedure, shortened: as §1

[10] = test system: J82 (Bladder Carcinoma)
Procedure, shortened: as §1

[11] = test system: SUIT-2 (Pancreatic Carcinoma)
Procedure, shortened: as §1

[12] = test system: NCI-H1793 (Lung Adenocarcinoma)
Procedure, shortened: as §1

[13] = test system: DB (B-Cell Non-Hodgkin's Lymphoma)
Procedure, shortened: as §1

[14] = test system: KARPAS-620 (Plasma Cell Myeloma)
Procedure, shortened: as §1

[15] = test system: SN12C (Kidney Carcinoma)
Procedure, shortened: as §1

[16] = test system: C3A (Hepatocellular Carcinoma)
Procedure, shortened: as §1

[17] = test system: LS-513 (Colorectal Carcinoma)
Procedure, shortened: as §1

[18] = test system: MDA-MB-231 (Breast Carcinoma)
Procedure, shortened: as §1

[19] = test system: MFH-ino (Other Solid Carcinomas)
Procedure, shortened: as §1

[20] = test system: DSH1 (Bladder Carcinoma)
Procedure, shortened: as §1

SMILES | combination Emax [1] | combination Emax [2] | combination Emax [3] | combination Emax [4] | combination Emax [5] | combination Emax [6] | combination Emax [7] | combination Emax [8] | combination Emax [9] | combination Emax [10] | combination Emax [11] | combination Emax [12] | combination Emax [13] | combination Emax [14] | combination Emax [15] | combination Emax [16] | combination Emax [17] | combination Emax [18] | combination Emax [19] | combination Emax [20]
NC1(C(=O)N[C@@H](CCO)c2ccc(Cl)cc2)CCN(c2ncnc3[nH]ccc23)CC1 [Capivasertib] + CCN(CCO)CCCOc1ccc2c(Nc3cc(CC(=O)Nc4cccc(F)c4)[nH]n3)ncnc2c1 [AZD2811] (first compound max 10 µM, 7x7, partner max 1 µM) | 0.559 | 0.512 | 0.544 | 0.777 | 0.396 | 1 | 0.364 | 0.877 | 0.339 | 0.482 | 0.177 | 0.289 | 0.635 | 0.798 | 0.27 | 0.307 | 0.532 | 0.349 | 0.318 | 0.668
COc1nnc2ccc(N3CCC(c4ccc(OCCN5CCN(C)C(=O)[C@H]5C)cc4)CC3)nn12 [AZD5153] + Cn1cnc2c(F)c(Nc3ccc(Br)cc3Cl)c(C(=O)NOCCO)cc21 [Selumetinib] (first compound max 1 µM, 7x7, partner max 10 µM) | 0.949 | 0.391 | 0.482 | 0.839 | 0.844 | 1 | 0.729 | 0.992 | 0.429 | 0.496 | 0.558 | 0.373 | 0.761 | 0.99 | 0.277 | 0.777 | 0.951 | 0.73 | 0.636 | 0.683
Cc1cc2ncnn2cc1Nc1ncc2c(n1)n(C1CCOCC1)c(=O)n2C [AZD7648] + CN(C)CCCOc1ccc(-c2ccc3ncc4c(c3c2)n(C2CCOCC2)c(=O)n4C)cn1 [AZD0156] (first compound max 10 µM, 7x7, partner max 1 µM) | 0.511 | 0.173 | 0.325 | 0.394 | 0.353 | 0.486 | 0.352 | 0.349 | 0.41 | 0.104 | 0.109 | 0.333 | 0.551 | 0.468 | 0.262 | 0.251 | 0.247 | 0.42 | 0.341 | 0.286
C[C@@H]1COCCN1c1cc(C2([S@](C)(=N)=O)CC2)nc(-c2ccnc3[nH]ccc23)n1 [AZD6738] + O=C(c1cc(Cc2n[nH]c(=O)c3ccccc23)ccc1F)N1CCN(C(=O)C2CC2)CC1 [Olaparib] (first compound max 10 µM, 7x7, partner max 10 µM) | 0.712 | 0.616 | 0.915 | 0.944 | 0.701 | 1 | 0.666 | 0.984 | 0.442 | 0.344 | 0.676 | 0.379 | 0.736 | 0.544 | 0.249 | 0.429 | 0.722 | 0.572 | 0.576 | 0.752
CC1(C)CCC(CN2CCN(c3ccc(C(=O)NS(=O)(=O)c4ccc(NCC5CCOCC5)c([N+](=O)[O-])c4)c(Oc4cnc5[nH]ccc5c4)c3)CC2)=C(c2ccc(Cl)cc2)C1 [Venetoclax] + C=CCn1c(=O)c2cnc(Nc3ccc(N4CCN(C)CC4)cc3)nc2n1-c1cccc(C(C)(C)O)n1 [AZD1775] (first compound max 1 µM, partner max 1 µM) | 0.463 | 0.51 | 0.912 | 0.954 | 0.713 | 1 | 0.641 | 0.949 | 0.451 | 0.177 | 0.596 | 0.481 | 1 | 0.976 | 0.381 | 0.572 | 0.697 | 0.481 | 0.184 | 0.48
Cc1cc2ncnn2cc1Nc1ncc2c(n1)n(C1CCOCC1)c(=O)n2C [AZD7648] + O=C(c1cc(Cc2n[nH]c(=O)c3ccccc23)ccc1F)N1CCN(C(=O)C2CC2)CC1 [Olaparib] (first compound max 10 µM, 7x7, partner max 10 µM) | 0.55 | 0.252 | 0.386 | 0.423 | 0.213 | 0.988 | 0.249 | 0.351 | 0.162 | 0.351 | 0.205 | 0.371 | 0.451 | 0.394 | 0.138 | 0.232 | 0.19 | 0.266 | 0.262 | 0.272
